Assay type in all cases: functional, cell-based
Experiment [1] concerns SW480. Put plainly: Cytotoxicity against human SW480 cells assessed as growth inhibition after 48 hrs by MTT assay. The conditions noted are these: SW480, 48 h.
In experiment [2] the test system is MCF7. The experiment can be described thus: Cytotoxicity against human MCF7 cells assessed as growth inhibition after 48 hrs by MTT assay. The settings on record: MCF7, 48 h.
The subject of experiment [3] is A549. The experiment can be described thus: Cytotoxicity against human A549 cells assessed as growth inhibition after 48 hrs by MTT assay. The conditions noted are these: A549, 48 h.
Experiment [4] has as its system HL-60. Put plainly: Cytotoxicity against human HL60 cells assessed as growth inhibition after 48 hrs by MTT assay. The settings on record: HL-60, 48 h.
Experiment [5] relates to SMMC-7721. Put plainly: Cytotoxicity against human SMMC7721 cells assessed as growth inhibition after 48 hrs by MTT assay. The settings on record: SMMC-7721, 48 h.

As to `O=[N+]([O-])c1ccc(C[n+]2ccn(C(c3ccccc3)c3cc4ccccc4o3)c2)cc1` (stereo not given), the IC50 in experiment [1], in experiment [2], in experiment [3], in experiment [4] and in experiment [5] was over 40 µM in each case.

As for `Cc1n(C(c2ccccc2)c2cc3ccccc3o2)cc[n+]1CC(=O)c1ccc(Br)cc1` (stereo not given), the concentration for half-maximal inhibition (IC50) in experiment [1] is 14.5 µM; in experiment [2], 15.2 µM; in experiment [3], 26.1 µM; in experiment [4], 3.3 µM; in experiment [5], 11.1 µM.

Take `Cc1n(C(c2ccccc2)c2cc3ccccc3o2)cc[n+]1CC(=O)c1ccc(O)cc1` (stereo not given): the IC50 in experiment [1], in experiment [2], in experiment [3], in experiment [4] and in experiment [5] was over 40 µM in each case.

Take `COc1ccc(C(=O)C[n+]2ccn(C(c3ccccc3)c3cc4ccccc4o3)c2C)cc1` (stereo not given): the IC50 in experiment [1] came out at 14.4 µM; in experiment [2], 9.84 µM; in experiment [3] it was 8 µM; in experiment [4], 1.65 µM; in experiment [5], 5.29 µM.

In the case of `Cc1n(C(c2ccccc2)c2cc3ccccc3o2)cc[n+]1CC(=O)c1ccc2ccccc2c1` (stereo not given), the half-inhibitory concentration (IC50) in experiment [1] amounted to 4.48 µM; in experiment [2] it was 2.24 µM; in experiment [3], 8.57 µM; in experiment [4], 1.85 µM; in experiment [5], 4.29 µM.

As for `C=CC[n+]1ccn(C(c2ccccc2)c2cc3ccccc3o2)c1CC` (stereo not given), the IC50 in experiment [1], in experiment [2], in experiment [3], in experiment [4] and in experiment [5] was over 40 µM each time.

In the case of `CCCC[n+]1ccn(C(c2ccccc2)c2cc3ccccc3o2)c1CC` (stereo not given), the IC50 in experiment [1], in experiment [2], in experiment [3], in experiment [4] and in experiment [5] was over 40 µM each time.

For the compound `CCc1n(C(c2ccccc2)c2cc3ccccc3o2)cc[n+]1Cc1ccccc1` (stereo not given), the IC50 in experiment [1] amounted to 3.75 µM; in experiment [2], 5.24 µM; in experiment [3], 6.52 µM; in experiment [4] it was 2.06 µM; in experiment [5], 7.14 µM.

As for `CCc1n(C(c2ccccc2)c2cc3ccccc3o2)cc[n+]1CC(=O)c1ccccc1` (stereo not given), the IC50 in experiment [1] was found to be 19.1 µM; in experiment [2] it was 14 µM; in experiment [3] it was 13.7 µM; in experiment [4], 2.64 µM; in experiment [5], 10.6 µM.

In the case of `CCc1n(C(c2ccccc2)c2cc3ccccc3o2)cc[n+]1CC(=O)c1ccc(F)cc1` (stereo not given), the IC50 was over 40 µM in experiment [1]; 13.8 µM in experiment [2]; 7.36 µM in experiment [3]; 2.38 µM in experiment [4]; 10.9 µM in experiment [5].

Turning to `CCc1n(C(c2ccccc2)c2cc3ccccc3o2)cc[n+]1CC(=O)c1ccc(Br)cc1` (stereo not given), the IC50 in experiment [1] is 15.5 µM; in experiment [2], 9.5 µM; in experiment [3], 14.1 µM; in experiment [4], 2.94 µM; in experiment [5], 6.14 µM.

Consider `CCc1n(C(c2ccccc2)c2cc3ccccc3o2)cc[n+]1CC(=O)c1ccc(O)cc1` (stereo not given), for which the half-inhibitory concentration (IC50) in experiment [1], in experiment [2], in experiment [3], in experiment [4] and in experiment [5] was over 40 µM throughout.

As for `CCc1n(C(c2ccccc2)c2cc3ccccc3o2)cc[n+]1CC(=O)c1ccc(OC)cc1` (stereo not given), the IC50 in experiment [1] came out at 17.1 µM; in experiment [2] it was 9.5 µM; in experiment [3], 5.43 µM; in experiment [4], 2.17 µM; in experiment [5] it was 7.07 µM.

On to `CCc1n(C(c2ccccc2)c2cc3ccccc3o2)cc[n+]1CC(=O)c1ccc2ccccc2c1` (stereo not given), for which the IC50 in experiment [1] amounted to 16.4 µM; in experiment [2], 4.2 µM; in experiment [3], 3.23 µM; in experiment [4] it was 1.86 µM; in experiment [5], 4.48 µM.

As for `C=CC[n+]1cn(C(c2ccccc2)c2cc3ccccc3o2)c2ccccc21` (stereo not given), the half-inhibitory concentration (IC50) in experiment [1], in experiment [2], in experiment [3], in experiment [4] and in experiment [5] was over 40 µM each time.

As to `CCCC[n+]1cn(C(c2ccccc2)c2cc3ccccc3o2)c2ccccc21` (stereo not given), the IC50 in experiment [1] is 29.3 µM; in experiment [2], 15.4 µM; in experiment [3] it was 12.3 µM; in experiment [4], 2.87 µM; in experiment [5], 7.03 µM.

For `c1ccc(C[n+]2cn(C(c3ccccc3)c3cc4ccccc4o3)c3ccccc32)cc1` (stereo not given), the IC50 in experiment [1] is 6.31 µM; in experiment [2], 9.16 µM; in experiment [3] it was 6.92 µM; in experiment [4], 1.05 µM; in experiment [5], 3.63 µM.

For `O=[N+]([O-])c1ccc(C[n+]2cn(C(c3ccccc3)c3cc4ccccc4o3)c3ccccc32)cc1` (stereo not given), the IC50 in experiment [1] is 14 µM; in experiment [2], 16.4 µM; in experiment [3], over 40 µM; in experiment [4] it was 11 µM; in experiment [5] it was 11.5 µM.

As for `O=C(C[n+]1cn(C(c2ccccc2)c2cc3ccccc3o2)c2ccccc21)c1ccccc1` (stereo not given), the half-maximal inhibitory concentration (IC50) in experiment [1] worked out at 15.5 µM; in experiment [2], 9.59 µM; in experiment [3] it was 14.4 µM; in experiment [4], 2.69 µM; in experiment [5], 5.34 µM.

For the compound `O=C(C[n+]1cn(C(c2ccccc2)c2cc3ccccc3o2)c2ccccc21)c1ccc(F)cc1` (stereo not given), the IC50 in experiment [1] was determined as 13.6 µM; in experiment [2], 12 µM; in experiment [3], 9.15 µM; in experiment [4], 2.1 µM; in experiment [5] it was 3.98 µM.

As for `O=C(C[n+]1cn(C(c2ccccc2)c2cc3ccccc3o2)c2ccccc21)c1ccc(Br)cc1` (stereo not given), the IC50 in experiment [1] worked out at 3.75 µM; in experiment [2], 3.35 µM; in experiment [3], 4.76 µM; in experiment [4], 2.68 µM; in experiment [5], 3.99 µM.

On to `O=C(C[n+]1cn(C(c2ccccc2)c2cc3ccccc3o2)c2ccccc21)c1ccc(O)cc1` (stereo not given), for which the 50% inhibitory concentration (IC50) in experiment [1], in experiment [2], in experiment [3], in experiment [4] and in experiment [5] was over 40 µM in each case.

For `c1ccc(C(c2cc3ccccc3o2)n2cnc3ccccc32)cc1` (stereo not given), the IC50 in experiment [1], in experiment [2], in experiment [3], in experiment [4] and in experiment [5] was over 40 µM throughout.

`C=CC[n+]1ccn(C(c2ccccc2)c2cc3ccccc3o2)c1` (stereo not given): the IC50 in experiment [1], in experiment [2], in experiment [3], in experiment [4] and in experiment [5] was over 40 µM each time.

With `CCCC[n+]1ccn(C(c2ccccc2)c2cc3ccccc3o2)c1` (stereo not given), the IC50 in experiment [1], in experiment [2], in experiment [3], in experiment [4] and in experiment [5] was over 40 µM in each case.

As for `c1ccc(C[n+]2ccn(C(c3ccccc3)c3cc4ccccc4o3)c2)cc1` (stereo not given), the concentration for half-maximal inhibition (IC50) in experiment [1], in experiment [2], in experiment [3], in experiment [4] and in experiment [5] was over 40 µM throughout.

As to `O=C(C[n+]1ccn(C(c2ccccc2)c2cc3ccccc3o2)c1)c1ccccc1` (stereo not given), the IC50 in experiment [1], in experiment [2], in experiment [3], in experiment [4] and in experiment [5] was over 40 µM each time.

For the compound `O=C(C[n+]1ccn(C(c2ccccc2)c2cc3ccccc3o2)c1)c1ccc(F)cc1` (stereo not given), the IC50 in experiment [1], in experiment [2], in experiment [3], in experiment [4] and in experiment [5] was over 40 µM in each case.

In the case of `O=C(C[n+]1ccn(C(c2ccccc2)c2cc3ccccc3o2)c1)c1ccc(Br)cc1` (stereo not given), the IC50 stood at 15.5 µM in experiment [1]; 12 µM in experiment [2]; 15.5 µM in experiment [3]; 2.64 µM in experiment [4]; 5.5 µM in experiment [5].

As to `O=C(C[n+]1ccn(C(c2ccccc2)c2cc3ccccc3o2)c1)c1ccc(O)cc1` (stereo not given), the IC50 in experiment [1], in experiment [2], in experiment [3], in experiment [4] and in experiment [5] was over 40 µM each time.

Take `COc1ccc(C(=O)C[n+]2ccn(C(c3ccccc3)c3cc4ccccc4o3)c2)cc1` (stereo not given): the concentration for half-maximal inhibition (IC50) in experiment [1] was determined as 15.4 µM; in experiment [2] it was 16.1 µM; in experiment [3], 14.6 µM; in experiment [4], 2.99 µM; in experiment [5], 8.47 µM.

As for `O=C(C[n+]1ccn(C(c2ccccc2)c2cc3ccccc3o2)c1)c1ccc2ccccc2c1` (stereo not given), the IC50 in experiment [1] stood at 14.2 µM; in experiment [2], 3.12 µM; in experiment [3], 7.77 µM; in experiment [4] it was 1.93 µM; in experiment [5], 3.47 µM.

For the compound `C=CC[n+]1ccn(C(c2ccccc2)c2cc3ccccc3o2)c1C` (stereo not given), the concentration for half-maximal inhibition (IC50) in experiment [1], in experiment [2], in experiment [3], in experiment [4] and in experiment [5] was over 40 µM each time.

Regarding `CCCC[n+]1ccn(C(c2ccccc2)c2cc3ccccc3o2)c1C` (stereo not given), the IC50 in experiment [1], in experiment [2], in experiment [3], in experiment [4] and in experiment [5] was over 40 µM in each case.

Turning to `Cc1n(C(c2ccccc2)c2cc3ccccc3o2)cc[n+]1Cc1ccccc1` (stereo not given), the 50% inhibitory concentration (IC50) in experiment [1], in experiment [2], in experiment [3], in experiment [4] and in experiment [5] was over 40 µM in each case.

In the case of `Cc1n(C(c2ccccc2)c2cc3ccccc3o2)cc[n+]1CC(=O)c1ccccc1` (stereo not given), the half-maximal inhibitory concentration (IC50) was over 40 µM in experiment [1]; 10.2 µM in experiment [2]; 18.8 µM in experiment [3]; 3.17 µM in experiment [4]; 14.8 µM in experiment [5].

In the case of `Cc1n(C(c2ccccc2)c2cc3ccccc3o2)cc[n+]1CC(=O)c1ccc(F)cc1` (stereo not given), the IC50 in experiment [1] worked out at 12.7 µM; in experiment [2] it was 10.7 µM; in experiment [3] it was 21.7 µM; in experiment [4] it was 4.7 µM; in experiment [5], 14.5 µM.

The values are drawn from ChEMBL document CHEMBL2331534, “Design, synthesis and biological evaluation of novel hybrid compounds of imidazole scaffold-based 2-benzylbenzofuran as potent anticancer agents” (Eur J Med Chem, 2013).
